The test has as its system Formalin induced pain in rat animal models of hyperalgesia. Briefly: Rat Formalin Paw Test (in vivo assay). The note with it: flinches, shown in FIGS. 1 and 2. On the procedure:
Rat Formalin Paw Test (in Vivo Assay): Compounds were assessed for their ability to inhibit the behavioral response evoked by an injection of formalin (50 μl of 5% formalin). A metal band was affixed to the left hind paw of male Holtzman rats (225-250 g, Harlan Industries, Indianapolis Ind.) and each rat was conditioned to the band for 60 min within a plastic cylinder (15 cm diameter). Rats were dosed with either vehicle, positive control compound or a test compound either before (local) or after (systemic) formalin challenge. For local administration, compounds were prepared in either a 10:7.5 vehicle of saline (in mL) and (D)- or (L)-Tartaric acid (in mg), or a 1:1:6 vehicle of DMA (N,N-Dimethylacetamide), Tween 80 and saline, and injected […] into the dorsal surface of the right hind paw of the rat 60 min prior to formalin. The number of flinches was counted continuously for 60 min using an automated nociception analyzer (UCSD Anesthesiology Research, San Diego, Calif.). Statistical significance was determined by comparing the total flinches detected in the early (0-10 min, Phase I) and late (11-60 min) phase with an unpaired t-test. […]

Turning to `CC1CCCC(NC(=O)C2N(C(C)CCc3ccccc3)C(=O)C3C(C(=O)Nc4cc(Cl)cc(Cl)c4)C4C=CC32O4)C1C` (centres unmarked) [Compound 52, 3-(1-Methyl-3-phenyl-propyl)-4-oxo-10-oxa-3-aza-tricyclo[5.2.1.0^1,5]dec-8-ene-2,6-dicarboxylic acid 2-[(3,5-dichloro-phenyl)-amide]6-[(2,3-dimethyl-cyclohexyl)-amide]], the “reduction of Formalin induced pain” value is listed as “reduction of Formalin induced pain”. Take `O=C(c1ccc(F)cc1)C1CCN(CCn2c(=O)[nH]c3ccccc3c2=O)CC1` [Compound 401, 3-{2-[4-(4-Fluoro-benzoyl)-piperidin-1-yl]-ethyl}-1H-quinazoline-2,4-dione]: the “reduction of Formalin induced pain” value is listed as “reduction of Formalin induced pain”.

(Values after patent US8586619B2, “Agents of calcium ion channel modulators” (VM Therapeutics LLC, priority 2007, dated 2013).)
